What was measured:
[1] = Solubilisation of Camptothecin by DOTAP/DOPC liposomes, UV/Vis at 369 nm; assay type: physicochemical; conditions: for concentration of solubilized Camptothecin: 10% trehalose
Experimental: Treated and untreated liposomal formulations were exposed to Camptothecin as described for Paclitaxel in Example 2.1. The concentration of solubilized Camptothecin was determined by UV/Vis-spectroscopy (Beckmann DU 640, Beckmann Coulter, Germany) at 369 nm after dilution in methanol.

[2] = cited from earlier work
[3] = Solubilisation of dry Paclitaxel by empty liposomes, filtration, HPLC quantification
Experimental: The Agilent 1100 Series HPLC System (Agilent Technologies, Palo Alto, Calif., USA) consisted of a quaternary pump, an autosampler, a column thermostat and an on-line degasser. A LiChrospher 60 RP (5 μm, 4×250 mm) analytical column (Merck, Darmstadt, Germany) was used. The flow rate of the mobile phase, consisting of 32% (v/v) acetonitrile, 12% tetrahydrofuran and 56% ammoniumacetat (2 mM in water, pH value set to 4.8 with acetic acid) was set at 1 ml/min.

Question: Which results are given for `CC[C@@]1(O)C(=O)OCc2c1cc1n(c2=O)Cc2cc3ccccc3nc2-1` [Camptothecin]?
Answer: enhancement of concentration of solubilized agent, pre-treated versus untreated (factor) ([1]; DOTAP/DOPC 50/50 10 mM): factor of about three; concentration of solubilized Camptothecin ([1]; pre-treated DOTAP/DOPC 50/50 10 mM): 52 µM; concentration of solubilized Camptothecin ([1]; untreated DOTAP/DOPC 50/50 10 mM): 18 µM

Question: With `CC(=O)O[C@H]1C(=O)[C@@]2(C)[C@H]([C@H](OC(=O)c3ccccc3)[C@]3(O)C[C@H](OC(=O)[C@H](O)[C@@H](NC(=O)c4ccccc4)c4ccccc4)C(C)=C1C3(C)C)[C@]1(OC(C)=O)CO[C@@H]1C[C@@H]2O` [Paclitaxel] as the compound, how does the “solubility of paclitaxel in a corresponding aqueous buffer” value ([2]; aqueous buffer without liposomes) read?
Answer: below 1 μM

Question: And the “solubility of paclitaxel in water” value ([2]; water)?
Answer: below 1 μg/ml

Question: And the “expected amount of solubilised Paclitaxel” value ([3]; 100 mM liposome preparation, freeze/thaw treated, extrapolated from solubilisation factor)?
Answer: 4 mM

Question: What about the “loading capacity of single-lipid liposomes after freezing/thawing” value ([3]; 100% DOTAP and 100% DOPC liposomes, 10 mM) of the same compound?
Answer: improved

Question: What about the “solubility of Paclitaxel in liposomal preparations versus liquid formulation without pre-treatment” value ([3]; DOTAP/DOPC 50/50 10 mM, spray dried, spray freeze-dried, freeze-dried, frozen) of the same compound?
Answer: elevated

Question: And the “amount of solubilised Paclitaxel, freeze/thawed versus untreated (factor)” value ([3]; DOTAP/DOPC 50/50, at a given lipid concentration)?
Answer: about a factor of four higher

Question: What about the “concentration of solubilised Paclitaxel (maximum obtained)” value ([3]; DOTAP/DOPC 50/50 liposomes, 10-35 mM lipid, 10% trehalose, after freezing/thawing, 3 h) of the same compound?
Answer: up to 1600 μM

Question: And the “loading capacity, treated versus untreated lipid dispersions (factor)” value ([3]; DOTAP/DOPC mixtures 25/75, 50/50, 75/25, 10 mM lipid, freeze/thaw)?
Answer: about a factor of four higher

Question: What about the “loading capacity of binary lipid mixtures after freeze/thawing” value ([3]; DOTAP/DOPC, DOTAP/DSPC, DSTAP/DSPC 50/50) of the same compound?
Answer: substantially improved

Question: What about the “improvement of loading capacity, untreated versus treated liposomes (factor)” value ([3]; DOTAP/DSPC 50/50 liposomes, freeze/thaw) of the same compound?
Answer: 5

Question: What about the “loading at 15 min incubation compared with 3 hour incubation” value ([3]; freeze-dried, rehydrated DOTAP/DOPC 50/50 liposomes) of the same compound?
Answer: not lower

Question: And the “solubilised concentration of Paclitaxel” value ([3]; per 1 mM of untreated DOTAP/DOPC)?
Answer: 10 µM
